Entries after “also recorded” stand apart in the source; their conditions may differ. Where two headings read alike, the source gives them in different places. Marks after values point to notes of the source that are not given here.
Tests used:
[1] = biological target: T1, DPP-IV enzyme (Homo sapiens, UniProt P27487); test: In vitro DPP-IV inhibition assay (Biovision kit, fluorescence); format: biochemical; settings: for DPP-4 enzyme inhibition activity, in words: SAR discussion
T1 construct: purchased Biovision (Milpitas, Calif., USA)
Protocol: DPP-IV inhibition assay was conducted using a kit purchased from Biovision (Milpitas, Calif., USA). Briefly, DPP-IV enzyme was diluted with Tris buffer and pipetted 50 μl into glass mini-cells. […] Finally a volume of 25 μl of DPP-IV substrate was added into each tube. The fluorescence generated from hydrolysis of the substrate was read at Ex/Em=360/460 nm using Modulus® single tube multimode reader (Promega, USA). Baseline fluorescence was recorded before incubation (R1) and 20 min after incubation (R2).
The standard DPP-IV inhibitor drug sitagliptin employed as positive control. […] Sigmoidal concentration-response curves for DPP-IV % inhibition versus log concentration were plotted using Graphpad prism software, version 5.00 (GraphPad Software, Inc. La Jolla, Calif., USA).

[2] = system: diabetic mice; test: Oral glucose tolerance test (OGTT) after multiple doses (6 days) in diabetic mice; format: in vivo; settings: for AUC % change from diabetic control / AUC Δ from diabetic control / Relative potency to vildagliptin / AUC of blood glucose in OGTT (X, mean): 50 mg/kg oral for 6 days; for Relative potency to vildagliptin: OGTT AUC; for AUC of blood glucose in OGTT (X, mean): glucose load 2 g/kg 2 h after 6th dose, AUC 0-120 min; for R.P. to Vildagliptin (6 Days): Table 6, relative potency, B.G. = blood glucose
Protocol: (§1) The Biochemical and Research Ethical Committee of King Abulaziz University (Jeddah, Saudi Arabia), in accordance with the NIH guidelines, approved all procedures, and the animals received human care during the experimental period. Experiments were carried out using adult male Swiss albino mice (SWR), of 8-9 weeks age and 30-35 g weight. Animals were purchased from the animal house of the King Fahed Medical Research center (KFMRC), Jeddah, Saudi Arabia. Mice were kept at a constant temperature of 24-25° C. and were subjected to a controlled 12 h light-dark cycle; they had free access to water and pelleted diet ad libitum.
(§2) Nicotinamide (210 mg/kg b.w.), dissolved in saline, was injected intraperitoneally 15 min before the intraperitoneal injection of Streptozotocin (STZ) (Sigma, 180 mg/kg b.w.), which was freshly prepared in citrate buffer (pH 4.5). Control animals received both vehicles. During the experimental period, animals' food intake and body weight gain were monitored once a week.
(§3) On the same groups that received the single dose treatment, the tested compounds were given daily by oral gavage for six consecutive days. On day 6, the overnight fasted diabetic mice were pretreated with the 6th oral dose of the tested compounds. Two hours later, an oral glucose was loaded (2 g/kg/10 ml b.w.). Blood glucose levels were determined using the Accu-check Go®. Samples were collected just before drug administration (Fasting Blood glucose), then 2 h after drug treatment and before glucose administration. Samples collection was continued at 20, 40, 60 and 120 min intervals after glucose loading.

[3] = system: diabetic mice; test: Oral glucose tolerance test (OGTT) after single dose in diabetic mice; format: in vivo; settings: for R.P. to Vildagliptin (Single Dose): Table 6, relative potency, B.G. = blood glucose; for AUC Δ from diabetic control / AUC of blood glucose in OGTT (X, mean) / AUC % change from diabetic control: single oral dose 50 mg/kg; for AUC of blood glucose in OGTT (X, mean): glucose load 2 g/kg 2 h later, AUC 0-120 min
Protocol: as §1, §2
Oral glucose tolerance tests were performed in 14 h overnight fasted diabetic mice that were pretreated with a single oral dose of the tested compounds. […] The drugs were suspended in carboxymethyl cellulose (CMC)-Na (1% in distilled water) and the dosing volume was adjusted at 10 mL/kg body weight of the mouse. Then an oral glucose load was administered (2 g/kg) 2 h after drug treatment. Blood glucose levels were determined using the Accu-check Go® (Roche Diagnostics, Michigan, USA). Samples were collected just before drug administration (fasting blood glucose), then at 2 h after drug treatment (immediately before glucose loading). Then blood sample collection was continued at 20, 40, 60 and 120 min intervals after glucose loading.
Animals were distributed between three categories of groups. Each group is composed of six animals (n=6) […] as follows:
Category 1: One group of animals were 14 h overnight-fasted normoglycemic mice and vehicle-treated (1% CMC-Na) at a dose of 10 ml/kg.
Category 2: Another group of animals was overnight fasted diabetic mice received the vehicle (1% CMC-Na) at a dosing volume of 10 ml/kg and served as a negative control.
Category 4: Animals of these groups were overnight fasted diabetic mice received the tested compounds at a dose of 50 mg/kg in 1% CMC (volume of 10 ml/kg).

[4] = system: diabetic mice; test: Fasting blood glucose of diabetic mice treated daily for 6 consecutive days; format: in vivo; settings: 50 mg/kg oral daily
Protocol: as §1, §2, §3
The oral glucose tolerance test (OGTT) was performed over six days on diabetic mice. The glucose level was monitored daily (Table 3). The results were analyzed for activities after a single dose (Table 4) and after the 6th dose of the drug (Table 5).

[5] = Table 2, head prints no unit, nM per Table 6, read-out: IC50
[6] = read-out: enzymatic inhibition value / inhibitory activity (IC50)

T1 sequence (P27487 whole entry, species assumed): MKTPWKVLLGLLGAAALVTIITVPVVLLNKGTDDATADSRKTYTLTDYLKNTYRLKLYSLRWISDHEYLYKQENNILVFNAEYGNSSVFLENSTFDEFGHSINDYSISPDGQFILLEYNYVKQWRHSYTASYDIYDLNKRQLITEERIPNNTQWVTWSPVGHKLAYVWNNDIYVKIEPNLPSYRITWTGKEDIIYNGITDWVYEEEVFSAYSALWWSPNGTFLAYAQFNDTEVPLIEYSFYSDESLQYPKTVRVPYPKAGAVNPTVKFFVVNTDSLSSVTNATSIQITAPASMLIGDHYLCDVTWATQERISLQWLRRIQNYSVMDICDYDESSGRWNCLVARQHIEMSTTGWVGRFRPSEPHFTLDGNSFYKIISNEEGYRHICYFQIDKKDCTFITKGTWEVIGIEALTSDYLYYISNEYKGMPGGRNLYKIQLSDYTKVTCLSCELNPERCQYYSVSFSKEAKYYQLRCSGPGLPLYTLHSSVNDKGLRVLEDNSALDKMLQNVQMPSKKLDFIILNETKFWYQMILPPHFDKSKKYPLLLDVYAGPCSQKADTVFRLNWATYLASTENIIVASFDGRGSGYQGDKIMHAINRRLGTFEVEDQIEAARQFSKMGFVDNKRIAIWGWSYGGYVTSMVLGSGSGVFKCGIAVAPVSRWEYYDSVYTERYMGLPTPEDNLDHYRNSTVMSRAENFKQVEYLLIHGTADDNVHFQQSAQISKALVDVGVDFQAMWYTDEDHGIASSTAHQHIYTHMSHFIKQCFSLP

SMILES | DPP-4 enzyme inhibition activity, in words [1] | IC50 [1, 5] [nM] | IC50 ([1]; Table 6, read-out: IC50) [nM] | % Inhibition @ 100 nM ([1]; compound at 100 nM) [%] | IC50 [1, 6] [nM] | AUC % change from diabetic control [2] [%] | AUC Δ from diabetic control [2] [mg·min/dL] | Relative potency to vildagliptin [2] | AUC of blood glucose in OGTT (X, mean) [2] | R.P. to Vildagliptin (6 Days) [2] | R.P. to Vildagliptin (Single Dose) [3] | AUC Δ from diabetic control [3] [mg·min/dL] | AUC of blood glucose in OGTT (X, mean) [3] | Fasting blood glucose level, Day 1 [4] | Fasting blood glucose level, Day 2 [4] | Fasting blood glucose level, Day 3 [4] | Fasting blood glucose level, Day 4 [4] | Fasting blood glucose level, Day 5 [4] | Fasting blood glucose level, Day 6 [4] | AUC % change from diabetic control [3] [%] | also measured
N#Cc1cccc(NC(=O)CNC23CC4CC(CC(C4)C2)C3)c1 [Compound 110] | high affinity towards the enzyme | 3.02 | 3.02 | 65.51 | 3 | −30.05 | 15825 | 0.83 | 36830* mg · dL^−1 · min | 0.27 | 1.11 | 18801 | 32264* mg · dL^−1 · min | 165.00 ± mg/dL | 107.20 ± mg/dL | 83.00 ± mg/dL | 105.60 ± mg/dL | 111.80 ± mg/dL | 121.40 mg/dL | – | –
N#Cc1ccc(NC(=O)CNC23CC4CC(CC(C4)C2)C3)cc1 [Compound 118] | high affinity towards the enzyme; also recorded: high DPP-4 inhibition | 6.25 | 6.25 | 81.14 | – | −54.25 | 28569 | 1.50 | 24086* mg · dL^−1 · min | 0.64 | 1.33 | 22581 | 28484* mg · dL^−1 · min | 151.00 ± mg/dL | 124.00 ± mg/dL | 117.80 ± mg/dL | 141.00 ± mg/dL | 140.50 ± mg/dL | 151.30 ± mg/dL | −44.22 | –
O=C(CNC12CC3CC(CC(C3)C1)C2)Nc1ccccn1 [Compound 119, 2-[(adamantan-1-yl)amino]-N-(pyridin-2-yl)acetamide] | best functionality in enzyme inhibition activity | 1.58 | 1.58 | – | 1.6 | −23.26 | 12250 | 0.64 | 40405* mg · dL^−1 · min | 1.26 | 1.417 | 23997 | 27068* mg · dL^−1 · min | 149.60 ± mg/dL | 103.40 ± mg/dL | 104.80 ± mg/dL | 148.60 ± mg/dL | 107.60 ± mg/dL | 118.60 ± mg/dL | −46.99 | DPP-4 enzyme inhibition activity, in words ([1]; listed as GLP-119): high level of potency both in vitro and in vivo; inhibition at 0.1 µM ([1]; compound at 100 nM): 58%

Further lines, with some results ahead:

DPP-4 enzyme inhibition activity, in words [1] | IC50 [1, 5] [nM] | IC50 ([1]; Table 6, read-out: IC50) [nM] | % Inhibition @ 100 nM ([1]; compound at 100 nM) [%] | IC50 [1, 6] [nM] | SMILES | AUC % change from diabetic control [2] [%] | AUC Δ from diabetic control [2] [mg·min/dL] | Relative potency to vildagliptin [2] | AUC of blood glucose in OGTT (X, mean) [2] | R.P. to Vildagliptin (6 Days) [2] | R.P. to Vildagliptin (Single Dose) [3] | AUC Δ from diabetic control [3] [mg·min/dL] | AUC of blood glucose in OGTT (X, mean) [3] | Fasting blood glucose level, Day 1 [4] | Fasting blood glucose level, Day 2 [4] | Fasting blood glucose level, Day 3 [4] | Fasting blood glucose level, Day 4 [4] | Fasting blood glucose level, Day 5 [4] | Fasting blood glucose level, Day 6 [4] | AUC % change from diabetic control [3] [%] | also measured
much better performance | 2.08 | 2.08 | 79.63 | – | O=C(CNC12CC3CC(CC(C3)C1)C2)Nc1cccc(O)c1 [Compound 111] | −9.820 | 6161 | 0.27 | 47494 mg·min/dL | 0.46 | 1.52 | 25735 | 25330* mg · dL^−1 · min | 171.00 mg/dL | 122.40 ± mg/dL | 74.80 ± mg/dL | 153.00 ± mg/dL | 141.20 ± mg/dL | 180.20 mg/dL | −50.39 | –
high DPP-4 inhibition | 7.41 | 7.41 | 61.82 | – | O=C(CNC12CC3CC(CC(C3)C1)C2)Nc1ccc(Cl)cc1 [Compound 112] | −16.99 | 8947 | 0.46 | 43708* mg · dL^−1 · min | 0.79 | 1.14 | 19295 | 31770* mg · dL^−1 · min | 159.20 ± mg/dL | 114.40 ± mg/dL | 84.40 ± mg/dL | 115.40 ± mg/dL | 132.40 ± mg/dL | 122.00 ± mg/dL | −37.78 | –

Source: patent US10683267B1, “Antidiabetic compounds” (King Abdulaziz University, priority 2019, dated 2020)
